Assay results as given in US20220249415A1, “COMPOSITION OF AZELAIC ACID HAVING ADIPOSE TRIGLYCERIDE HYDROLYSIS EFFECT” (Korea University Research and Business Foundation, priority 2018, published 2022).
“Also recorded” adds a separate entry of the source.

Key:
[1] = system: 3T3-L1 adipocytes; test: MTT assay, cytotoxicity of azelaic acid; type: cell-based, mouse; conditions: azelaic acid up to 500 μM, 24 hours
Method: In order to evaluate cytotoxicity of azelaic acid, MTT assay was performed.
The MTT assay is a test method using an ability of mitochondria reducing MTT tetrazolium, a yellow water-soluble substrate, to a blue purple water-insoluble MTT formazane […]. An MTT reagent was prepared by diluting C18H16BrN5S (Thiazoly Blue Tetrazolium Bromide) in phosphate buffered saline (PBS) at a concentration of 2 to 5 mg/ml.
First, after the 3T3-L1 adipocytes (4×10^5 cells/ml) were seeded in a 96-well plate and cultured at 37° C. under 5% CO2 conditions for 24 hours, the cultured 3T3-L1 adipocytes were treated with azelaic acid in a concentration range of 0 to 500 μM and cultured for 24 hours. After 100 μL of the MTT reagent was added to each test sample at a concentration of 4 mg/mL and cultured at 37° C. under 5% CO2 conditions for 4 hours, 100 μL of dimethyl sulfoxide (DMSO) was added thereto, and absorbance was measured at 540 nm. An absorbance value is to quantify an apoptotic effect due to toxicity using the principle that absorbance is in proportion to the number of living cells.

[2] = molecular target: Olfr544 (Mus musculus, UniProt E9PX47); test: CRE-luciferase reporter gene assay in Hana3A cell line transfected with Olfr544 expression vector; type: cell-based
Method: In order to evaluate an activity of azelaic acid as an Olfr544 ligand in vitro assay, reporter gene assay was performed. Generally, a degree of gene expression of the olfactory receptor (OR) in tissue cells was low and a degree of protein expression also was low, such that research into the olfactory receptor was difficult. In order to solve this problem, a Hana3A cell line was supplied from a team led by professor Hiroaki Matsunami of Duke University and used in an experiment (Zhuang H., et al., Nat. Protocol, 3:1402-1413, 2008).
The reporter gene assay was performed as follows. First, after an Olfr544 expression vector and a cAMP response element (CRE)-Luciferase reporter vector were transfected into the Hana3A cell line, the transfected Hana3A cell line was treated with azelaic acid for 18 hours. Then, a luciferase activity was measured using a Firefly luciferase (FL) assay kit, and a dose response curve (DRC) was drawn based on the measured luciferase activity, thereby calculating a 50% effective concentration (EC50) corresponding to an index for determining an effect as a ligand (agonist).

[3] = system: 3T3-L1 adipocytes; test: IP-one assay (ELISA) in 3T3-L1 adipocytes; type: cell-based, mouse; conditions: 50 μM azelaic acid, 18 hours
Method: Therefore, changes in concentrations of cAMP, IP-one (metabolite of IP3), and calcium, which are second messengers by azelaic acid corresponding to the Olfr544 ligand, in 3T3-L1 adipocytes were measured. Since IP3 has low stability to thereby be easily decomposed to IP-one, an amount of intracellular IP-One (metabolite of IP3) was quantified instead of IP3.
IP-one assay is a method of measuring a concentration of IP3 corresponding to a second messenger formed by phospholipolysis by phospholipase in a GPCR signal transduction process to measure an ability to regulate protein kinase C (PKC) signal transduction. In the present experiment, 1×10^4 3T3-L1 adipocytes were seeded in each well of the 96-well plate and differentiated, and then treated with 50 μM azelaic acid for 18 hours. Then, in order to measure IP3, the concentration of intracellular IP-one (metabolite of IP3, a surrogate marker) of which an error was small was measured using an IP-one ELISA Assay kit (Cisbio, France).

[4] = system: normal mice; test: Energy metabolism by indirect calorimetry in normal mice; type: in vivo, mouse; conditions: 50 mg/kg oral, 6 weeks
Excerpt: Relative metabolic rates were confirmed by measuring consumption amount of O2 and production amounts of CO2 of an azelaic acid administration group and a control group using indirect calorimetry.

[5] = system: hAMSC cells; test: Treatment of human adipocyte line hAMSC with azelaic acid; type: cell-based; conditions: azelaic acid 50 μM
Method: The anti-obesity effect was confirmed by treating a human adipocyte line, namely hAMSC cells (Cell Bio, CEFO, Seoul Korea), with azelaic acid (50 μM).

[6] = molecular target: T1, OR2K2 (Homo sapiens, UniProt Q8NGT1); test: siRNA knock-down of OR2K2 in HepG2 cells, fatty acid oxidation-related gene expression; type: cell-based
T1 construct: endogenous in cells; host or cells: HepG2
T1 sequence (Q8NGT1 1-316): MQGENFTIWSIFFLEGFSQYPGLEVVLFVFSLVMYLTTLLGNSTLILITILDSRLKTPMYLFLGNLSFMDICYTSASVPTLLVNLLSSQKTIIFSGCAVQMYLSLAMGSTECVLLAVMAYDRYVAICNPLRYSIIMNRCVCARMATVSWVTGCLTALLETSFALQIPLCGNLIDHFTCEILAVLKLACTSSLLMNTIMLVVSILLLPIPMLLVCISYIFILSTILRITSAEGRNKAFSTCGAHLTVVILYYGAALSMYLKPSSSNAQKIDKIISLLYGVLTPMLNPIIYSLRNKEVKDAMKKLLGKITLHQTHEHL
Excerpt: (§1) The gene expression of OR1E1, OR1K1, OR2K2, OR2S2, OR13C5, and OR51E2, corresponding to the top 6 receptors among 10 human olfactory receptors selected to be expressed in both adipose tissue and liver tissue while interacting with azelaic acid, was knocked down with siRNA in human-derived liver cell and adipocyte lines, namely HepG2 cells and hAMSC cells, respectively. Here, siRNAs that were used were OR1E2 siRNA (sc-93932), OR1K2 (sc-92810), OR2K2 (sc-92852), OR2S2 (sc-92505), OR13C5 (sc-92899), and OR51E2 (sc-76265), purchased from Santa Cruz Biotechnology Inc. (Dallas, Tx USA).
(§2) After knock-down treatment, the cell lines were treated with azelaic acid, and triglyceride hydrolysis and fatty acid oxidation-related gene expression in HepG2 cells as a human-derived liver cell line and hAMSC cells as a human-derived adipocyte line were measured.

[7] = molecular target: T1, OR2K2; test: siRNA knock-down of OR2K2 in hAMSC cells, lipolysis; type: cell-based; conditions: treated with azelaic acid
Excerpt: as §1, §2

Chain of Olfr544 (E9PX47 entry or part of it): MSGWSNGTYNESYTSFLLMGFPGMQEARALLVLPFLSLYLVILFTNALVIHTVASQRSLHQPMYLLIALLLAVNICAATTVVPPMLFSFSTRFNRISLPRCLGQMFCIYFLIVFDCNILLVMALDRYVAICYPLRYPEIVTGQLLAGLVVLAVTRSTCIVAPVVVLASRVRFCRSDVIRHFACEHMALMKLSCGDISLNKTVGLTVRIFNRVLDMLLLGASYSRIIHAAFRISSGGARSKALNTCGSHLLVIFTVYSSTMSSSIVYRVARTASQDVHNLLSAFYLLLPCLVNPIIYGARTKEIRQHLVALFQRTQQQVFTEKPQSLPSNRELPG

SMILES: O=C(O)CCCCCCCC(=O)O [azelaic acid, nonanedioic acid]
- cytotoxicity (MTT assay) [1]: cytotoxicity was not observed; also recorded: toxicity was not exhibited
- EC50 ([2]; Olfr544 + CRE-Luciferase reporter in Hana3A cells, 18 hours): 29.7 µM
- Olfr544 activity ([2]; concentration range of 1 to 1000 μM): concentration-dependently increased
- concentration of IP3 (IP-one) [3]: did not affect
- consumption amount of O2 ([4]; vs control): no large difference
- fatty acid oxidation ([4]; vs control): increased
- respiratory quotient (RQ) ([4]; vs control): decreased
- total energy expenditure (EE) ([4]; vs control): no change
- production amount of CO2 ([4]; vs control group): significantly increased
- cAMP-PKA signaling [5]: activated
- calcium concentration [5]: no change
- inositol phosphate (IP) concentration [5]: no change
- release of glycerol [5]: promoted
- expression of fatty acid oxidation-related genes (PPARa, CTP1, Acox2) upon treatment with azelaic acid ([6]; HepG2 cells during knock-down of OR2K2): did not change
- expression of fatty acid oxidation-related genes (PPARa, CTP1, Acox2), knocked-down group compared to control group ([6]; HepG2 cells, OR2K2 knock-down, upon treatment with azelaic acid): statistically significantly decreased
- lipolytic effect, knock-down group compared to control group [7]: statistically significantly decreased
